The record followed here is EPA's ToxValDB 9.5.

Where “and” joins values, the source holds several entries; their conditions need not be identical. Equal values may be shown once.

Data set [1] relates to Rattus norvegicus. Conditions: oral.
Data set [2] deals with Rattus norvegicus. Conditions: for LC50 / LD50: acute.
The next data set concerns Mus musculus. Conditions: for LOAEL / NOAEL: diet, B6C3F1.
For the next data set, the system named is Oryctolagus sp. Conditions: for LD50: acute; for LOAEL: Dutch-belted.
[3] abbreviates: chronic, duration: 6 months, inhalation, Sprague-Dawley.
Where [4] appears, read: subchronic, duration: 30 days, oral, diet, Sprague-Dawley.
[5] abbreviates: short-term, duration: 28 days, gavage, M, Sprague-Dawley, Deaths + Clinical Observation: Locomotor activity decrease, SalivationDiarrhea or loose stool Staining around nose and mouth + Functional ….
Setting [6] is: subchronic, duration: 13 weeks, oral, diet, Fischer 344.
Setting [7] is: short-term, duration: 13 days, oral.
The mark [8] stands for this setting: subchronic, duration: 13 weeks, oral.
Setting [9] is: short-term, duration: 14 days, oral, gavage, F, Fischer 344.
Where [10] appears, read: short-term, duration: 14 days, oral, gavage, M, Fischer 344.
[11] abbreviates: subchronic, duration: 13 weeks, inhalation, F, Fischer 344.
Setting [12] is: subchronic, duration: 13 weeks, inhalation, Fischer 344.
The mark [13] stands for this setting: subchronic, duration: 13 weeks, oral, gavage, F, Fischer 344.
The mark [14] stands for this setting: subchronic, duration: 13 weeks, oral, gavage, Fischer 344.

For the compound `CC(C)(C)C(=O)O` [2,2-Dimethylpropanoic acid], the NOAEL in the data set with Rattus norvegicus [1] (short-term, duration: 28 days, gavage, M/F, Fischer 344, Clinical Observation: Head shaking Sneezing Dark nasal discharge + Blood Chemistry: ALP increase, T-Cho increase, T-Bil increase + Absolute …) worked out at 300 mg/kg-day; in the data set with Rattus norvegicus [2] (short-term, duration: 28 days, oral, gavage, Fischer 344), 300 mg/kg-day; with Oryctolagus sp. (repeat dose other, dermal, M), 300 mg/kg-day; in the data set with Oryctolagus sp. (repeat dose other, dermal, semiocclusive) it was 300 mg/kg-day. The LC50 is below 4 µg/mL in the data set with Rattus norvegicus [2] (inhalation, Wistar) and below 4 µg/mL with Mus musculus (acute, inhalation, Swiss). The LD50 is 3160 mg/kg in the data set with Oryctolagus sp. (dermal) and 3160 mg/kg in the data set on Oryctolagus sp. (dermal, semiocclusive).

`CC(C)(N)CO` [2-Amino-2-methylpropan-1-ol]: the LOAEL with Rattus norvegicus [2] (subchronic, duration: 3 months, oral, diet, Sprague-Dawley) is 240 mg/kg-day. The LD50 with Mus musculus (acute, oral, gavage) was 3350 mg/kg; with Oryctolagus sp. (dermal, occlusive) it was above 2000 mg/kg.

With `Cc1ccccn1` [2-Methylpyridine], the LC50 in the data set with Rattus norvegicus [2] (inhalation) is ≥ 7620 mg/m3 and ≤ 15200 mg/m3; with Rattus norvegicus [2] (inhalation, Sprague-Dawley), below 13200 mg/m3. Moreover, the LD50 was 810 mg/kg and > 950 mg/kg in the data set on Rattus norvegicus [2] (oral, gavage, Sprague-Dawley); ≥ 252 mg/kg and ≤ 500 mg/kg in the data set with Oryctolagus sp. (dermal); ≥ 200 mg/kg and ≤ 316 mg/kg with Oryctolagus sp. (dermal, occlusive, New Zealand). The compound further registered an LOAEL in the data set with Rattus norvegicus [2] (setting [3]) above 381 mg/m3. In the data set with Rattus norvegicus [2] (setting [3]), this compound displayed an NOAEL of at least 381 mg/m3.

As to `CC(C)(c1ccc(Oc2ccc3c(c2)C(=O)OC3=O)cc1)c1ccc(Oc2ccc3c(c2)C(=O)OC3=O)cc1` [4,4'-(4,4'-Isopropylidenediphenoxy)bisphthalic dianhydride], the LD50 with Rattus norvegicus [2] (oral, gavage, Spartan) is above 5000 mg/kg; in the data set on Rattus norvegicus [2] (oral, gavage, Sprague-Dawley), above 5000 mg/kg; in the data set on Oryctolagus sp. (dermal, New Zealand), above 2000 mg/kg; with Oryctolagus sp. (dermal, occlusive, New Zealand) it was above 2000 mg/kg. The NOAEL with Rattus norvegicus [2] (developmental, duration: 10 days, oral, gavage, Sprague-Dawley) is above 1000 mg/kg-day; in the data set with Rattus norvegicus [2] (reproduction developmental, oral, gavage, Sprague-Dawley), above 1000 mg/kg-day; with Rattus norvegicus [2] (reproduction developmental, oral, gavage, Sprague-Dawley, generation: F1), above 1000 mg/kg-day. For the same compound, the “LOAEL (% diet)” value in the data set on Rattus norvegicus [2] (setting [4]) was above 4. Besides, the “NOAEL (% diet)” value with Rattus norvegicus [2] (setting [4]) came to 4.

Turning to `Cc1cc(O)c(C(C)(C)C)cc1Sc1cc(C(C)(C)C)c(O)cc1C` [4,4'-Thiobis(6-tert-butyl-m-cresol)], the NOAEL turned out to be 60 mg/kg-day in the data set with Rattus norvegicus [1] (setting [5]); 2500 ppm with Rattus norvegicus [2] (short-term, duration: 15 days, oral, diet, Fischer 344); 48 mg/kg-day in the data set on Rattus norvegicus [2] (setting [6]); 250 ppm in the data set on Mus musculus (setting [7]); 49.2 mg/kg-day in the data set on Mus musculus (setting [8]); 0.2 mg/kg-day with Oryctolagus sp. (reproduction developmental, duration: 13 days, oral, gavage, F, New Zealand). Further, the NOEL in the data set on Rattus norvegicus [1] (setting [5]) was below 60 mg/kg-day; in the data set with Rattus norvegicus [1] (subchronic, duration: 13 weeks, diet, F, Fischer 344, Clinical Observation: Diarrhea + Body Weight Changes: decrease + Food Consumption: decrease + Hematology: Nucleated erythrocyte increase, …), below 15 mg/kg-day; in the data set on Rattus norvegicus [1] (subchronic, duration: 13 weeks, diet, M/F, Fischer 344, Clinical Observation: Diarrhea + Body Weight Changes: decrease + Food Consumption: decrease + Hematology: Nucleated erythrocyte increase, …) it was below 24 mg/kg-day. In addition, the LD50 in the data set with Rattus norvegicus [2] (oral, diet, Sprague-Dawley) is 4150 mg/kg; with Rattus norvegicus [2] (oral, gavage, Sprague-Dawley), 4150 mg/kg; in the data set with Oryctolagus sp. (dermal, New Zealand) it was above 5010 mg/kg; with Oryctolagus sp. (dermal, occlusive, New Zealand), above 5010 mg/kg. Further, the LOAEL with Rattus norvegicus [2] (short-term, duration: 13 days, oral, diet, Fischer 344) came to 250 ppm; in the data set on Rattus norvegicus [2] (setting [6]), 96 mg/kg-day; with Mus musculus (setting [7]), 500 ppm; in the data set with Mus musculus (setting [8]), 98.5 mg/kg-day.

In the data set with Rattus norvegicus [2] (inhalation, Sprague-Dawley), `CCc1ccc(C)cc1` [4-Ethyltoluene] registered an LC50 above 19200 mg/m3. Also, the LD50 with Rattus norvegicus [2] (oral, gavage, Sprague-Dawley) was 4850 mg/kg; in the data set with Oryctolagus sp. (dermal, occlusive, New Zealand) it was above 5000 mg/kg. Also, the NOAEL in the data set on Rattus norvegicus [2] (developmental, duration: 20 days, oral, gavage) is above 200 mg/kg-day; in the data set on Rattus norvegicus [2] (setting [9]) it was 200 mg/kg-day; in the data set on Rattus norvegicus [2] (setting [10]), 200 mg/kg-day; in the data set with Rattus norvegicus [2] (setting [11]) it was 1500 mg/m3; with Rattus norvegicus [2] (setting [12]) it was 1500 mg/m3; in the data set with Rattus norvegicus [2] (setting [13]) it was 100 mg/kg-day. This compound had an NOAEL in the data set on Rattus norvegicus [2] (setting [14]) of 100 mg/kg-day. The LOAEL with Rattus norvegicus [2] (setting [9]) was 400 mg/kg-day; with Rattus norvegicus [2] (setting [10]), 400 mg/kg-day; with Rattus norvegicus [2] (setting [11]), 4810 mg/m3; in the data set with Rattus norvegicus [2] (setting [12]), 4810 mg/m3; with Rattus norvegicus [2] (setting [13]), 300 mg/kg-day; with Rattus norvegicus [2] (setting [14]), 300 mg/kg-day. Further, the LOAEL was above 200 mg/kg-day with Oryctolagus sp. (developmental, oral, gavage) and 250 mg/kg-day in the data set with Oryctolagus sp. (reproduction developmental, oral, gavage, F).

`CCCCCN(CCCCC)C(=S)[S][Sb]([S]C(=S)N(CCCCC)CCCCC)[S]C(=S)N(CCCCC)CCCCC` [Antimony diamyldithiocarbamate]: the LD50 in the data set with Rattus norvegicus [2] (oral, gavage) came to 16400 mg/kg; in the data set on Oryctolagus sp. (dermal, occlusive) it was 16000 mg/kg.
